Blank lines part the entries; values can stand above or below the compound they belong to.
Key:
MCF7 [1] = assay: Antiproliferative activity against human MCF7 cells assessed as cell viability at 75 uM after 72 hrs relative to control; type: functional; conditions: MCF7, 72 h
MCF7 [2] = assay: Antiproliferative activity against human MCF7 cells after 72 hrs; type: functional, cell-based
HeLa = assay: Antiproliferative activity against human HeLa cells assessed as cell viability at 75 uM after 72 hrs relative to control; type: functional
SK-OV-3 = assay: Antiproliferative activity against human SKOV3 cells assessed as cell viability at 75 uM after 72 hrs relative to control; type: functional; conditions: SK-OV-3, 72 h
HT-29 = assay: Antiproliferative activity against human HT-29 cells assessed as cell viability at 75 uM after 72 hrs relative to control; type: functional; conditions: HT-29, 72 h

SMILES: CCOC(=O)C(c1ccc(O)c(OC)c1)C(c1ccc(O)cc1)c1ccc(O)cc1 (stereo not drawn)
inhibition at 75 µM (MCF7 [1]): 75%

SMILES: OCC(c1ccccc1)C(c1ccc(O)cc1)c1ccc(O)cc1 (stereo not drawn)
inhibition at 75 µM (HeLa): 80%
inhibition at 75 µM (SK-OV-3): 80%
inhibition at 75 µM (MCF7 [1]): 80%
inhibition at 75 µM (HT-29): 80%

SMILES: CCOC(=O)C(c1cccc(OC)c1)C(c1ccc(O)cc1)c1ccc(O)cc1 (stereo not drawn)
inhibition at 75 µM (HeLa): 80%
inhibition at 75 µM (SK-OV-3): 80%
IC50 (MCF7 [2]; Homo sapiens, MCF7, 72 h): 85.1 µM
inhibition at 75 µM (MCF7 [1]): 80%
inhibition at 75 µM (HT-29): 80%

SMILES: CCOC(=O)C(c1ccc(C)cc1)C(c1ccc(O)cc1)c1ccc(O)cc1 (stereo not drawn)
inhibition at 75 µM (HeLa): 80%
inhibition at 75 µM (SK-OV-3): 80%
IC50 (MCF7 [2]; Homo sapiens, MCF7, 72 h): 78.7 µM
inhibition at 75 µM (MCF7 [1]): 80%
inhibition at 75 µM (HT-29): 80%

SMILES: CCOC(=O)C(c1ccc(OC)cc1)C(c1ccc(O)cc1)c1ccc(O)cc1 (stereo not drawn)
inhibition at 75 µM (MCF7 [1]): 75%

Now from value to compound, other results behind:

IC50 (MCF7 [2]; mcf7): 103 µM
SMILES: COc1cc(C(CO)C(c2ccc(O)c(OC)c2)c2ccc(O)c(OC)c2)ccc1O (stereo in doubt; 9a)

IC50 (MCF7 [2]; Homo sapiens, MCF7, 72 h): 80.6 µM
SMILES: CCOC(=O)C(c1ccccc1)C(c1ccc(O)cc1)c1ccc(O)cc1 (stereo not drawn)
inhibition at 75 µM (HeLa): 80%
inhibition at 75 µM (SK-OV-3): 80%
inhibition at 75 µM (MCF7 [1]): 80%
inhibition at 75 µM (HT-29): 80%

IC50 (MCF7 [2]; Homo sapiens, MCF7, 72 h): 104 µM
SMILES: COc1cc(C(CO)C(c2ccc(O)c(OC)c2)c2ccc(O)c(OC)c2)ccc1O (stereo in doubt)

Source: ChEMBL document CHEMBL2424626, “Synthesis and antiproliferative activities of quebecol and its analogs” (Bioorg Med Chem Lett, 2013)
